Experiment [1] concerns the target PRMT5/MEP50 (Homo sapiens (Human), UniProt O14744). Kind of experiment: PRMT5 Biochemical Assay (PRMT5/MEP50 enzyme assay on peptide substrate, 3H-SAM Flashplate). Particulars: PRMT5 biochemical assay; read-out: Biochemical IC50. The text has this:
S-adenosylmethionine (SAM), S-adenosylhomocysteine (SAH), bicine, KCl, Tween20, dimethylsulfoxide (DMSO), bovine skin gelatin (BSG), and Tris(2-carboxyethyl)phosphine hydrochloride solution (TCEP) were purchased from Sigma-Aldrich at the highest level of purity possible. ^3H-SAM was purchase from American Radiolabeled Chemicals with a specific activity of 80 Ci/mmol. 384-well streptavidin Flashplates were purchased from PerkinElmer.
Peptide representative of human histone H4 residues 1-15 was synthesized with a C-terminal linker-affinity tag motif and a C-terminal amide cap by 21st Century Biochemicals. […] The sequence was Ac-[…][K-Biot]-amide (SEQ ID NO.:3).
Full-length human MEP50 (NM_024102) clone was amplified from a human testis cDNA library incorporating a 5′ sequence encoding a 6-histidine tag (MHHHHHH)(SEQ ID NO.:5) fused directly to Arg 2 of MEP50. The amplified genes were sublconed into pENTR/D/TEV (Life Technologies) and subsequently transferred by Gateway™ attL×attR recombination to pDEST8 baculvirus expression vector (Life Technologies).
Recombinant baculovirus and Baculovirus-Infected Insect Cells (BIIC) were generated according to Bac-to-Bac kit instructions (Life Technologies) and Wasilko, 2006, respectively. Protein over-expression was accomplished by infecting exponentially growing Spodoptera frugiperda (SF9) cell culture at 1.2×10^6 cell/ml with a 5000 fold dilution of BIIC stock. Infections were carried out at 27° C. for 72 hours, harvested by centrifugation, and stored at −80° C. for purification.
Flag-PRMT5/6His-MeP50 was eluted with 300 mM Imidazole in the same buffer. […] Reference: Wasilko, D. J. and S. E. Lee: “TIPS: titerless infected-cells preservation and scale-up” Bioprocess J., 5 (2006), pp. 29-32.
General Procedure for PRMT5/MEP50 Enzyme Assays on Peptide Substrates.
The assays were all performed in a buffer consisting of 20 mM Bicine (pH=7.6), 1 mM TCEP, 0.005% BSG, and 0.002% Tween20, prepared on the day of use. Compounds in 100% DMSO (1 ul) were spotted into a polypropylene 384-well V-bottom plates (Greiner) using a Platemate Plus outfitted with a 384-channel head (Thermo Scientific). DMSO (1 ul) was added to Columns 11, 12, 23, 24, rows A-H for the maximum signal control and 1 ul of SAH, a known product and inhibitor of PRMT5/MEP50, was added to columns 11, 12, 23, 24, rows I-P for the minimum signal control. A cocktail (40 ul) containing the PRMT5/MEP50 enzyme and the peptide was added by Multidrop Combi (Thermo-Fisher). The compounds were allowed to incubate with PRMT5/MEP50 for 30 min at 25 degrees Celsius, then a cocktail (10 ul) containing ^3H-SAM was added to initiate the reaction (final volume=51 ul).

For experiment [2], the system named is Z-138 cell line. The experiment is described as follows: Z-138 Proliferation Assay (Cell Titer Glo, 5 days). The experiment is classed as cell-based. Conditions: Homo sapiens, Z-138, 120 h, Z-138 cells. From the text: [formula] Z-138 Proliferation Assay
Z-138 suspension cells were purchased from ATCC (American Type Culture Collection, Manassas, Va.). RPMI/Glutamax medium, penicillin-streptomycin, heat inactivated fetal bovine serum were purchased from Life Technologies, Grand Island, N.Y., USA. V-bottom polypropylene 384-well plates were purchased from Greiner Bio-One, Monroe, N.C., USA. Cell culture 384-well white opaque plates were purchased from Perkin Elmer, Waltham, Mass., USA. Cell-Titer Glo® was purchased from Promega Corporation, Madison, Wis., USA. SpectraMax M5 plate reader was purchased from Molecular Devices LLC, Sunnyvale, Calif., USA.
Z-138 suspension cells were maintained in growth medium (RPMI 1640 supplemented with 10% v/v heat inactivated fetal bovine serum and cultured at 37° C. under 5% CO2 Under assay conditions, cells were incubated in assay medium (RPMI 1640 supplemented with 10% v/v heat inactivated fetal bovine serum and 100 units/mL penicillin-streptomycin) at 37° C. under 5% CO2.
For the assessment of the effect of compounds on the proliferation of the Z-138 cell line, exponentially growing cells were plated in 384-well white opaque plates at a density of 10,000 cells/ml in a final volume of 50 μl of assay medium. A compound source plate was prepared by performing triplicate nine-point 3-fold serial dilutions in DMSO, beginning at 10 mM (final top concentration of compound in the assay was 20 μM and the DMSO was 0.2%). A 100 nL aliquot from the compound stock plate was added to its respective well in the cell plate. […] After addition of compounds, assay plates were incubated for 5 days at 37° C., 5% CO2, relative humidity >90%.
Cell viability was measured by quantitation of ATP present in the cell cultures, adding 35 μl of Cell Titer Glo® reagent to the cell plates. Luminescence was read in the SpectraMax M5 microplate reader. The concentration of compound inhibiting cell viability by 50% was determined using a 4-parametric fit of the normalized dose response curves.

Where only a bound is given, the exact number is not on record here.

PRMT5/MEP50, sequence (O14744 other isoform, or with tags, fused parts or gaps): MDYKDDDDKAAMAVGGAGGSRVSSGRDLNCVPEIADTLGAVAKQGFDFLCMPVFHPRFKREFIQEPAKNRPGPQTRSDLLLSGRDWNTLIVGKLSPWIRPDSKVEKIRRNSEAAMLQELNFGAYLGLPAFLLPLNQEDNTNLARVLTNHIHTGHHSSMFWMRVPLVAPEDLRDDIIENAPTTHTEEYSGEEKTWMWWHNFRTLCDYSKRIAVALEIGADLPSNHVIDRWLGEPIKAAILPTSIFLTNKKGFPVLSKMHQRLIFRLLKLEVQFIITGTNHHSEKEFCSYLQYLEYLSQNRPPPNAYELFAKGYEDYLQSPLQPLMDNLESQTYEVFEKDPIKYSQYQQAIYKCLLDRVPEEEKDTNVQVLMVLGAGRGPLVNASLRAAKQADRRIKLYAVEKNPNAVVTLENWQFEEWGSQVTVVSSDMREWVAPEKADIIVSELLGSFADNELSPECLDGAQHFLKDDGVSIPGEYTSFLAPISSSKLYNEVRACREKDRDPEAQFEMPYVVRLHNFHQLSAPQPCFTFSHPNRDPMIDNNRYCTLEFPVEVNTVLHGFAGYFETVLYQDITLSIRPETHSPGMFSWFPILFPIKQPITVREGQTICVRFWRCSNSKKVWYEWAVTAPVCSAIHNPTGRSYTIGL
PRMT5/MEP50, sequence (Q9BQA1 other isoform, or with tags, fused parts or gaps partner): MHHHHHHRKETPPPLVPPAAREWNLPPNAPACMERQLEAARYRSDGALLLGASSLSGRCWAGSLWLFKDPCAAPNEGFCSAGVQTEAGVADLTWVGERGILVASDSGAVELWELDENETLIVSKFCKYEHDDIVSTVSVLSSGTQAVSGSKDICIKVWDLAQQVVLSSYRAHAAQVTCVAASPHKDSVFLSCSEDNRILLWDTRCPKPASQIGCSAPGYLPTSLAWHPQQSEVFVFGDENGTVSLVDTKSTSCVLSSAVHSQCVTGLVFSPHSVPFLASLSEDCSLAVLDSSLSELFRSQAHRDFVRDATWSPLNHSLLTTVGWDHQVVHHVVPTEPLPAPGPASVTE

As to `O=C(COc1cccc2cccnc12)NCC(O)CN1CCc2ccccc2C1` (stereo not drawn) [Compound 6, N-(3-(3,4-dihydroisoquinolin-2(1H)-yl)-2-hydroxypropyl)-2-(quinolin-8-yloxy)acetamide], in experiment [1], the IC50 was less than 0.1 µM. For the same compound, the EC50 in experiment [2] fell in the range of 0.101 to 1 µM.

For the compound `O=C(COc1cccc2cccnc12)NC[C@@H](O)CN1CCc2ccccc2C1` [Compound 45, (R)—N-(3-(3,4-dihydroisoquinolin-2(1H)-yl)-2-hydroxypropyl)-2-(quinolin-8-yloxy)acetamide], in experiment [1], the IC50 was less than 0.1 µM. Further, the EC50 in experiment [2] lay in the range of 0.101 to 1 µM.

As for `O=C(COc1ccccc1N1CCNCC1)NCC(O)CN1CCc2ccccc2C1` (stereo not drawn) [Compound 79], in experiment [1], the IC50 was less than 0.1 µM. This compound yielded an EC50 in experiment [2] of 1 to 10 µM.

Take `O=C(COc1cccc(C(=O)NCCc2c[nH]cn2)c1)NC[C@@H](O)CN1CCc2ccccc2C1` [Compound 189]: in experiment [1], the IC50 was 0.101 to 1 µM.

As to `CN1CCN(c2cccc(OCC(=O)NC[C@@H](O)CN3CCc4ccccc4C3)c2)CC1` [Compound 190], in experiment [1], the IC50 was less than 0.1 µM.

With `CN(C)CCN(C)S(=O)(=O)c1ccccc1OCC(=O)NC[C@@H](O)CN1CCc2ccccc2C1` [Compound 191], in experiment [1], the IC50 is less than 0.1 µM.

Consider `O=C(CCc1nc2ccccc2[nH]1)NC[C@@H](O)CN1CCc2ccccc2C1` [Compound 192, (R)-3-(1H-benzo[d]imidazol-2-yl)-N-(3-(3,4-dihydroisoquinolin-2(1H)-yl)-2-hydroxypropyl)propanamide], for which, in experiment [1], the IC50 fell in the range of 0.101 to 1 µM.

Consider `O=C(CCc1nc2ccccc2s1)NC[C@@H](O)CN1CCc2ccccc2C1` [Compound 193], for which, in experiment [1], the IC50 lay within 1 to 10 µM.

Take `O=C(COc1nc2ccccc2[nH]1)NC[C@@H](O)CN1CCc2ccccc2C1` [Compound 212]: the IC50 in experiment [1] lay in the range of 1 to 10 µM.

Take `O=C(COc1cccc(C(=O)NCCn2ccnc2)c1)NC[C@@H](O)CN1CCc2ccccc2C1` [Compound 230]: in experiment [1], the IC50 fell in the range of 1 to 10 µM.

With `CN1CCN(S(=O)(=O)c2ccccc2OCC(=O)NC[C@@H](O)CN2CCc3ccccc3C2)CC1CO` (stereo partly drawn) [Compound 233], the IC50 in experiment [1] is 1 to 10 µM.

In the case of `O=C(COc1ccccc1[C@H]1CCCCN1)NC[C@@H](O)CN1CCc2ccccc2C1` [Compound 235], the IC50 in experiment [1] lay within 1 to 10 µM.

With `O=C(CCn1cnc2ccccc21)NC[C@H](O)CN1CCc2ccccc2C1` [Compound 248], in experiment [1], the IC50 was in the range of 1 to 10 µM.

`[2H]C1([2H])Cc2ccccc2C([2H])([2H])N1C[C@@H](O)CNC(=O)CCc1nc2ccccc2[nH]1` [Compound 251]: the IC50 in experiment [1] lay in the range of 0.101 to 1 µM.

Regarding `Cn1c(CCC(=O)NC[C@@H](O)CN2CCc3ccccc3C2)nc2ccccc21` [Compound 268], in experiment [1], the IC50 lay in the range of 1 to 10 µM.

On to `O=C(COc1ccccc1N1CCNCC1)NC[C@@H](O)CN1CCc2ccccc2C1` [Compound 270], for which the IC50 in experiment [1] lay within 1 to 10 µM.

`CN1CC[C@@H](CN(C)S(=O)(=O)c2ccccc2OCC(=O)NC[C@@H](O)CN2CCc3ccccc3C2)C1` [Compound 272]: the IC50 in experiment [1] is less than 0.1 µM.

Consider “N-(3-(3,4-dihydroisoquinolin-2(1H)-yl)-2-hydroxypropyl)-2-((5,6,7,8-tetrahydronaphthalen-1-yl)oxy)acetamide [Compound 62]”, for which the IC50 in experiment [1] lay in the range of 1 to 10 µM.

These data come from patent publication US9745291B2, “PRMT5 inhibitors containing a dihydro- or tetrahydroisoquinoline and uses thereof” (Epizyme, Inc., priority 2012, dated 2017).
